Test system: adjuvant arthritis
Test: adjuvant arthritis test
Assay type: in vivo, Wistar rats
Details: for Clinical scores (± S.E.): 50 μg/rat peptide in PBS intradermally at day 4, 5 and 6 after M. tuberculosis, score 0 to 18; for Incidence of arthritis (arthritic rats/total rats): 50 μg/rat at day 4, 5 and 6
Procedure: The peptide of the present invention is useful in the treatment of inflammatory pathologies of different kinds and origins, as it is shown by pharmacological test (adjuvant arthritis test) as follows.
15 Wistar rats (C. River; weight 130-140 g) and anaesthetized with CO2, were intradermically administered (injection at the base of the tie) with 0.1 ml of a suspension of 10 mg/ml of heat-inactivated M. tuberculosis (Strain C, DT and PN; Central Vet. Labs--GB), in sterile paraffin oil. The rats were divided in 3 groups of 5 animals each, and at day 4, 5 and 6 from the above treatment, following the same method for inducing arthritis, they were administered with 50 μg/rat dose of the peptide I in 100 μl of PBS for the first group, with PBS only for the second group, while the third group was not treated. The course of the arthritis was monitored according to the following scheme of clinical scores:
The scores range from 0 to 4 for each paw; furthermore one additional score is assigned if there are nodules on the tie, and another futher score is assigned if ears are involved, thereby the score is 0 at minimum and 18 at maximum.

Substance: H-AKVNIKPLEDKILVQANEAETTTAS-OH [1-25]
- Clinical scores (± S.E.) (day 7): 0
- Clinical scores (± S.E.) (day 8): 0
- Incidence of arthritis (arthritic rats/total rats) (day 10): 1/5
- Clinical scores (± S.E.) (day 10): 0.6 ± 0.6
- Incidence of arthritis (arthritic rats/total rats) (day 11): 5/5
- Clinical scores (± S.E.) (day 11): 3.8 ± 0.4
- Incidence of arthritis (arthritic rats/total rats) (day 12): 5/5
- Clinical scores (± S.E.) (day 12): 10.0 ± 0.7
- Clinical scores (± S.E.) (day 13): 12.6 ± 0.6
